The test system of one data set is caspase-3. In words: Caspase-3/7 assay in cortical neurons. Format: cell-based, mouse. Conditions: for caspase-3 activity: cortical neurons, t-BuOOH 60 μM, NMDA 100 μM, glutamate 300 μM.
For the next data set, the system named is Nrf2. Conditions: cortical neurons; t-BuOOH 60 μM, NMDA 100 μM, glutamate 300 μM; up to 360 minutes.
For data set [1], the system named is primary cortical neurons. In words: Neuronal viability by MTT assay (t-BuOOH, NMDA, glutamate with or without t-BHQ). The following applies: 24 hours. On the technique in general: Formazan colour is commonly taken as a measure of viable cells.
Data set [2] concerns mouse cortical neuronal cells. In words: Glutamate-induced cytotoxicity in primary neurons (MTT). Type of data set: cell-based. The following applies: SnPPIX 5 μM; CHX 10 μM. As to the method: Mouse primary neurons cultured for 14 d were pre-treated for 6 h with EGb 761 (100 μg/ml). […] Neurons were incubated for an additional 18 h, and the MTT assay was used to estimate the cell survival. Experimental conditions were conducted in quadruplicate and repeated four times with different batches of primary cultures.
(§1) Neuronal survival was assessed and quantified with the MTT colorimetric assay. […] The optical density was determined at 570 nm. Cell viability of the vehicle-treated control group was defined as 100%, and MTT optical density in the treated groups was expressed as a percent of control.

A further data set has as its system HO-1. As to the kind of experiment: HO-1 protein expression in cortical neurons (Western blot). The following applies: cortical neurons pretreated 1 h with CHX or ATD, then 100 μg/ml EGb 761. Background: A western blot detects proteins with antibodies after separation by electrophoresis.
Another data set has as its system nrf2−/− and nrf2+/+ mice. In words: LPS induced septic shock mortality, NAC pretreatment. Format: in vivo. The following applies: LPS 1.5 mg per mouse.
Data set [3] has as its system OVA challenged Nrf2−/− mice. As to the kind of experiment: Lung histology (H&E) of OVA challenged mice pretreated with NAC. The following applies: OVA challenged (1st challenge) Nrf2−/− mice, NAC 7 days before challenge.
Protocol: Mice (male, 8 weeks old) were sensitized on day 0 by i.p. injection (100 μl/mouse) with 20 μg of ovalbumin complexed with aluminum potassium sulfate. On day 14, mice were sensitized a second time with 100 μg OVA. On days 24, 26 and 28, the mice were anesthetized by i.p. injection of 0.1 ml of a mixture of ketamine (10 mg/ml) and xylazine (1 mg/ml) diluted in sterile PBS and challenged with 200 μg of OVA (in 100 μl sterile PBS) by intratracheal instillation. The control groups received sterile PBS with aluminum potassium sulfate by i.p. route on day 0 and 14, and 0.1 ml of sterile PBS on day 24, 26 and 28. […]
The lungs were inflated with 0.6 ml of buffered formalin (10%), fixed for 24 h at 4° C., prior to histochemical processing. […] The number of PAS positive cells was counted on longitudinal lung sections of the proximal airways. The percent PAS positive cells was determined by counting the mucus positive cells and unstained epithelial cells in the proximal airways under the microscope with a grid at 100× magnification. […] The data are expressed as mean±SEM.
Nrf2^+/+ and Nrf2^−/− mice (6 mice in each group) were sensitized with OVA by following the procedure as already described. […] Twenty-four hours after challenge, BAL fluids and lung tissues were harvested and analyzed as above. […]
Data set [4] relates to OVA challenged Nrf2−/− mice. In words: BAL fluid inflammatory cell counts in OVA challenged mice pretreated with NAC.
Protocol: Mice (n=8) were anesthetized with 0.3 ml of pentobarbital (65 mg/ml) and the trachea was cannulated. […] BAL fluid was collected with 1 ml followed by 2×1 ml of sterile PBS containing 5 mM EDTA, DTT (5 mM) and PMSF (5 mM). The BAL fluid was immediately centrifuged at 1500×g. The total cell count was measured, and cytospin preparation (Shandon Scientific Inc., Cheshire, UK) was performed. Cells were stained with Diff-Quick reagent, and a differential count of 300 cells was performed using standard morphological criteria (Saltini C et al. Am Rev Respir Dis 130:650-658.1984).
Mice (male, 8 weeks old) were sensitized on day 0 by i.p. injection (100 μl/mouse) with 20 μg of ovalbumin complexed with aluminum potassium sulfate. On day 14, mice were sensitized a second time with 100 μg OVA. On days 24, 26 and 28, the mice were anesthetized by i.p. injection of 0.1 ml of a mixture of ketamine (10 mg/ml) and xylazine (1 mg/ml) diluted in sterile PBS and challenged with 200 μg of OVA (in 100 μl sterile PBS) by intratracheal instillation. The control groups received sterile PBS with aluminum potassium sulfate by i.p. route on day 0 and 14, and 0.1 ml of sterile PBS on day 24, 26 and 28. Mice were euthanized at different time points after OVA challenge for BAL, RNA isolation, histopathology, and for AHR measurements.
Nrf2^+/+ and Nrf2^−/− mice (6 mice in each group) were sensitized with OVA by following the procedure as already described. […] Twenty-four hours after challenge, BAL fluids and lung tissues were harvested and analyzed as above. The experiment was repeated two times.
Another data set relates to NF-κB. Type of data set: cell-based, mouse. Conditions: nrf2−/− MEFs pretreated 1 h with NAC (10 mM) or GSH-MEE (1 mM), then LPS (0.5 μg/ml) or TNF-α (10 ng/ml) 3 h.
In data set [5] the test system is mouse cortical neuronal cells. In words: H2O2-induced cytotoxicity in primary neurons (MTT). Type of data set: cell-based. The following applies: SnPPIX 5 μM. How it is done: After 10 d in culture, mouse primary neurons were pre-treated with EGb 761 (10, 50, or 100 μg/ml) for 6 h, and then treated for 18 h with H2O2 (20 μM) or vehicle (control) with or without 5 μM HO inhibitor (SnPPIX, Porphyrin Products, Inc., (Logan, Utah). Cell survival was evaluated by the 3-(4,5-dimethylthiazol-2-yl)-2,5-diphenyl tetrazolium bromide (MTT) colorimetric assay.
as §1

In another data set the test system is HO-2. As to the kind of experiment: HO-2 protein expression in cortical neurons (Western blot). Conditions: 8 h.
Data set [6] has as its system NADPH-cytochrome P450 reductase (CP450R). As to the kind of experiment: NADPH-cytochrome P450 reductase protein expression in cortical neurons (Western blot). Conditions: 8 h.
In data set [7] the test system is primary cortical neurons.

Structures are written as SMILES. “Also recorded” adds a separate entry of the source. *1 amine or outer side, *2 acyl side, *3 side chain or, on linkers, in order; H or OH if unused. Where a SMILES comes first, the peptide text is derived from it. Bridges are numbered along the chain shown (N, C = ends). Roman numbers before positions name the chains, in order. [ ]: non-standard residue; d: D form. Actinocin(9to1) = Cc1c2oc3c(C)ccc(C(=O)[*:1])c3nc-2c(C(=O)[*:2])c(N)c1=O; NMeV = CN[C@H](C(=O)O)C(C)C; Sar = CNCC(=O)O

Protocol for NF-κB: MEFs (60-80% confluence) were transfected with luciferase reporter genes (pNF-κB-luc or ISRE-Tk-Luc vector) by using Lipofectamine2000 (Invitrogen). The Renilla-luciferase reporter gene (pRL-TK) was co-transfected for normalization. After the treatments, the reporter gene activity was measured using the Dual Luciferase Assay System (Promega). All transfection experiments were carried out in triplicate wells and were repeated separately at least 3 times.

As for `CN[C@H](CC(=O)O)C(=O)O` [NMDA], in the data set with caspase-3, the caspase-3 activity result is “induced an increase”. Also, in the data set with Nrf2, the “Nrf2 in the cytosolic fraction” value is “no effect” and the “Nrf2 in the nuclear fraction” value is on record as “no effect”. In the data set on primary cortical neurons [1] (t-BuOOH 60 μM, NMDA 100 μM, glutamate 300 μM), the “number of viable neurons vs untreated control” value was “significantly decreased”.

As for `C[C@@H]1C[C@@H]([C@H](O)CC2CC(=O)NC(=O)C2)C(=O)[C@@H](C)C1` [CHX, cycloheximide], the “protective effect of EGb 761 against glutamate in presence of inhibitor” value in data set [2] is “prevented the protective effect”. Moreover, the “HO-1 induction by EGb 761 in presence of inhibitor” value in the data set with HO-1 was “completely block”.

`CC(C)(C)OO` [t-BuOOH, test-butyl hydroperoxide]: the caspase-3 activity entry with caspase-3 was “induced an increase”. Also, in the data set on Nrf2, the “Nrf2 in the cytosolic fraction” value was “decreased to below the basal level after 30 minutes” and the “Nrf2 in the nuclear fraction” value is given as “elevated at 30 min”.

As to `CC(=O)N[C@@H](CS)C(=O)O` [NAC, N-acetyl L-cysteine], the “LPS induced mortality (% survival) vs vehicle-pretreated mice” value in the data set on nrf2−/− and nrf2+/+ mice (nrf2−/− and nrf2+/+ mice, NAC ip 500 mg/kg daily 4 days, 5 days) is listed as “improved survival”. In addition, the “mice surviving LPS induced septic shock” value in the data set on nrf2−/− and nrf2+/+ mice (nrf2−/− mice, NAC 500 mg/kg ip daily 4 days, saline-pretreated all died within 56 h) stood at 40%. For the same molecule, in the data set on nrf2−/− and nrf2+/+ mice (wild-type mice, NAC 500 mg/kg 4 days), the “protection against LPS induced septic shock” value is recorded as “modest protection”. For the same molecule, the “infiltration of inflammatory cells in the peribronchial and perivascular region” value in data set [3] is given as “marked reduction; also recorded: significant reduction”. Also, the “other cell types (macrophages, neutrophils, lymphocytes, epithelial cells) in BAL fluid” value in data set [4] (24 h post 1st OVA challenge, NAC treatment) is given as “did not have any significant inhibitory effect”. The “inflammatory cells in the BAL fluid” value in [4] (Nrf2−/− OVA mice, NAC pretreatment 7 days before 1st OVA challenge) is “significantly (*) reduced”. Further, in [4] (saline-challenged mice treated with NAC vs untreated), the “total and differential cell counts in saline-challenged mice” value was “did not differ”.

For the molecule `CCOC(=O)CNC(=O)[C@H](CS)NC(=O)CC[C@H](N)C(=O)O` [GSH-monoethyl ester], in the data set on NF-κB, the “NF-κB mediated reporter activity elicited by LPS or TNF-α” value was “significantly attenuated”.

As to `N[C@@H](CCC(=O)O)C(=O)O` [glutamate], the caspase-3 activity entry in the data set on caspase-3 is reported as “induced an increase”. Further, in the data set with Nrf2, the “Nrf2 in the cytosolic fraction” value was “no effect” and the “Nrf2 in the nuclear fraction” value is given as “no effect”.

In the case of `Cc1c2oc3c(C)ccc(C(=O)N[C@@H]4C(=O)N[C@H](C(C)C)C(=O)N5CCC[C@H]5C(=O)N(C)CC(=O)N(C)[C@@H](C(C)C)C(=O)O[C@@H]4C)c3nc-2c(C(=O)N[C@@H]2C(=O)N[C@H](C(C)C)C(=O)N3CCC[C@H]3C(=O)N(C)CC(=O)N(C)[C@@H](C(C)C)C(=O)O[C@@H]2C)c(N)c1=O` [ATD, actinomycin D] (I: T[dV]P[Sar][NMeV] / II: T[dV]P[Sar][NMeV]; ester I:1-I:C, II:1-II:C; linker I:N-II:N via Actinocin(9to1)), the “HO-1 induction by EGb 761 in presence of inhibitor” value in the data set with HO-1 is listed as “completely block”.

Turning to `C=Cc1c2[n-]c(c1C)/C=c1\[n-]/c(c(C)c1C=C)=C\c1[n-]c(c(CCC(=O)O)c1C)C=c1[n-]/c(c(C)c1CCC(=O)O)=C\2.[Sn+4]` [SnPPIX, Tin Protoporphyrin IX], the “protective effect of EGb 761 against H2O2 in presence of HO inhibitor” value in [5] was “blocked the protective effect”. For the same molecule, the “protective effect of EGb 761 against glutamate in presence of inhibitor” value in data set [2] was “prevented the protective effect”.

On to `CC(C)(C)[C@]1(O)CC2OC(=O)CC23C(=O)OC2OC(=O)[C@H](O)C231` (some centres unmarked) [bilobalide], for which the HO-2 expression level entry in the data set on HO-2 is listed as “do not affect”. Moreover, the “NADPH-cytochrome P450 reductase (CP450R) protein expression” value in data set [6] is recorded as “do not affect”.

Regarding `CC(C)(C)c1cc(O)ccc1O` [t-BHQ, tert-butylhydroquinone], in the data set on caspase-3 (t-BHQ 20 μM), the “increase in caspase-3 activity evoked by t-BuOOH, NMDA and glutamate” value is “prevent the increase”. Further, the “basal levels of caspase-3 activity” value with caspase-3 (t-BHQ alone) was “no effect”. Also, in the data set on primary cortical neurons [7], the “neuronal viability, compound alone” value is given as “no effect”. Besides, in the data set with primary cortical neurons [1] (t-BHQ 20 μM), the “decrease in viable neurons caused by t-BuOOH, NMDA or glutamate” value is on record as “abolished”.

These data come from US20150080462A1, “COMPOSITIONS AND METHODS FOR THE TREATMENT OR PREVENTION OF DISORDERS RELATING TO OXIDATIVE STRESS” (THE JOHNS HOPKINS UNIVERSITY, priority 2005, published 2015).
